In BindingDB's records for doi:10.1021/acs.jmedchem.3c01130 (University of Toledo College of Medicine and Life Sciences, 2023):

Biological target: Transcription factor Sp1 (Homo sapiens, UniProt P08047)
Assay: Inhibition of human SP1 transfected in PC-3 cells by renilla luciferase reporter gene assay

Chain of Transcription factor Sp1 (P08047 whole entry): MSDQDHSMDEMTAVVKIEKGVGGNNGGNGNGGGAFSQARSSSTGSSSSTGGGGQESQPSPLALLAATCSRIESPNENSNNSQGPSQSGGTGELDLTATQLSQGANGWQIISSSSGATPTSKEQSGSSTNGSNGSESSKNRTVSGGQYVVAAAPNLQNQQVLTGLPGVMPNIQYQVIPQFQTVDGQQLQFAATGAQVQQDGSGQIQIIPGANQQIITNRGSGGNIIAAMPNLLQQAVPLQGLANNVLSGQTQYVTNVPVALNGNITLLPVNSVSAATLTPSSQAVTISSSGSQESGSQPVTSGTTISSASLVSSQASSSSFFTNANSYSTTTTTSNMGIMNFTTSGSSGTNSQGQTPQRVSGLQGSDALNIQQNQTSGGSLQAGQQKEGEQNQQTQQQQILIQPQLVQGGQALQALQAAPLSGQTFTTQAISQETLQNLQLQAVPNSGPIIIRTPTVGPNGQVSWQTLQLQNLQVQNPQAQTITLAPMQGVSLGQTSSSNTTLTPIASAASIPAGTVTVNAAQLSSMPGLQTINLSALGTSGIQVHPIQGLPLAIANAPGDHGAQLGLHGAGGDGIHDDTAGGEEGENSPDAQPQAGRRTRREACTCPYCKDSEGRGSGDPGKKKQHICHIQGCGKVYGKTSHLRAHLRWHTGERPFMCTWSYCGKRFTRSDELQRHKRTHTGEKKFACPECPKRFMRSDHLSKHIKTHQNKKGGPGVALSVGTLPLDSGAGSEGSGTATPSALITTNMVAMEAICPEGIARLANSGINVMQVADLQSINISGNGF

Structure (SMILES): COCC[n+]1c2c(n(Cc3cnccn3)c1C)C(=O)c1ccccc1C2=O [Sepantronium Bromide]
- IC50: 8 nM
